Columns and labels:
[1] = test system: HBV; assay: HepAD38 anti-HBV assay: reduction of viral product accumulation (virion DNA by qPCR, HBsAg or HBeAg by ELISA); assay type: cell-based; conditions: Hepatitis B virus, 120 h, HepAD38 cells, harvest five days after compound addition, 50% reduction of viral product vs no drug controls
Description: Methods: HepAD38 cells are maintained as previously reported (Ladner et al, Antimicrob. Agents Chemother. 1997, […], 1715). Briefly, cells are passaged upon attaining confluency in DMEM/F12 media in the presence of 10% FBS, Penn/Strep, 250 μg/mL G418, and 1 μg/ml tetracycline. Novel compounds are screened by first washing cells three times with PBS to remove tetracycline, and plating in 96 well plates at 35,000 cells/well. Compounds dissolved in DMSO are then diluted 1:200 into wells containing cells. Five days after compound addition, material is harvested for analysis. For an extended 8 day analysis, cells are plated and treated as described above, but media and compound are refreshed on d2 and d5 post initial treatment.
On harvest day, virion DNA is obtained by lysing with Sidestep Lysis and Stabilization Buffer and then quantified via quantitative real time PCR. Commercially available ELISA kits are used to quantitate the viral proteins HBsAg (Alpco) or HbeAg (US Biological) by following the manufacturer's recommended protocol after diluting samples to match the linear range of their respective assays. Irrespective of readout, compound concentrations that reduce viral product accumulation in the cell lysates or supernatants by 50% relative to no drug controls (EC50) are reported; EC50 ranges are as follows: A<0.1 μM; B 0.1-0.4 μM; C>0.4 μM.

[2] = Compound toxicity, total ATP levels (ATPLite); assay type: cell-based; conditions: human, HepG2 cells; three days after compound addition; 50% reduction of total ATP vs no drug controls
Description: Compound toxicity is evaluated by seeding cells at 15,000 cells/well and treating with compound as described above.

| SMILES | EC50 ([1]; class symbols) | CC50 at 3 days [2] | EC50 ([1]; given as numeric bound) |
| --- | --- | --- | --- |
| O=C1N[C@@]2(CO1)CC1=C(c3ccn(C(F)F)n3)[C@H](c3ccc(F)c(F)c3)N=C(c3nccs3)N1C2 [Example 15] | < 100 nM | > 25000 nM |  |
| C=CCN1C[C@@]2(CC3=C(c4ccn(C(F)F)n4)[C@H](c4ccc(F)cc4Cl)N=C(c4nccs4)N3C2)NC1=O [Example 4] | < 100 nM |  |  |
| O=C1N[C@@]2(CO1)CC1=C(c3ccn(C(F)F)n3)[C@H](c3ccc(Cl)c(F)c3)N=C(c3ccccn3)N1C2 [Example 17] |  |  | > 100 nM |
| C=CCN1CC2(CC3=C(c4ccn(C(F)F)n4)[C@H](c4ccc(F)cc4Cl)N=C(c4nccs4)N3C2)OC1=O (stereo partly shown) [Example 2] | > 400 nM |  |  |
| O=C1N[C@@]2(CO1)CC1=C(c3ccn(C(F)F)n3)[C@H](c3ccc(Cl)c(F)c3)N=C(c3nccs3)N1C2 [Example 7] | < 100 nM | > 25000 nM |  |
| O=C1OC2(CC3=C(c4ccn(C(F)F)n4)[C@H](c4ccc(F)cc4Cl)N=C(c4nccs4)N3C2)CN1Cc1ccccc1 (stereo partly shown) [Example 3] | > 400 nM |  |  |
| O=C1N[C@@]2(CO1)CC1=C(c3ccn(C(F)F)n3)[C@@H](c3ccc(Cl)c(F)c3)N=C(c3ccccn3)N1C2 [Example 18] |  |  | > 100 nM |
| O=C1N[C@@]2(CO1)CC1=C(c3ccn(C(F)F)n3)[C@@H](c3ccc(Cl)c(F)c3)N=C(c3nccs3)N1C2 [Example 8] |  |  | > 100 nM |
| O=C1N[C@@]2(CO1)CC1=C(c3cnn(C(F)F)n3)[C@H](c3ccc(F)cc3Cl)N=C(c3nccs3)N1C2 [Example 6] | < 100 nM | > 25000 nM |  |
| COC(=O)C1=C2C[C@@]3(COC(=O)N3)CN2C(c2nccs2)=N[C@H]1c1ccc(Cl)c(F)c1 [Example 11] | < 100 nM |  |  |
| O=C1N[C@]2(CO1)CC1=C(c3ccn(C(F)F)n3)[C@@H](c3ccc(Cl)c(F)c3)N=C(c3nccs3)N1C2 [Example 14] |  |  | > 100 nM |
| O=C1N[C@@]2(CO1)CC1=C(c3cnn(C(F)F)c3)[C@H](c3ccc(Cl)c(F)c3)N=C(c3nccs3)N1C2 [Example 9] | < 100 nM |  |  |
| O=C1N[C@@]2(CO1)CC1=C(c3cnn(C(F)F)c3)[C@@H](c3ccc(Cl)c(F)c3)N=C(c3nccs3)N1C2 [Example 10] |  |  | > 100 nM |
| O=C1N[C@@]2(CO1)CC1=C(c3ccn(C(F)F)n3)[C@@H](c3ccc(F)c(F)c3)N=C(c3nccs3)N1C2 [Example 16] |  |  | > 100 nM |
| C#CCN1CC2(CC3=C(c4ccn(C(F)F)n4)[C@H](c4ccc(F)cc4Cl)N=C(c4nccs4)N3C2)OC1=O (stereo partly shown) [Example 1] | > 400 nM |  |  |
| O=C1N[C@]2(CO1)CC1=C(c3ccn(C(F)F)n3)[C@H](c3ccc(Cl)c(F)c3)N=C(c3nccs3)N1C2 [Example 13] | < 100 nM | > 25000 nM |  |
| C=CCN1C[C@]2(CC3=C(c4ccn(C(F)F)n4)[C@H](c4ccc(F)cc4Cl)N=C(c4nccs4)N3C2)NC1=O [Example 5] | 100 to 400 nM |  |  |
| COC(=O)C1=C2C[C@@]3(COC(=O)N3)CN2C(c2nccs2)=N[C@@H]1c1ccc(Cl)c(F)c1 [Example 12] |  |  | > 100 nM |

Reference: patent publication US11236111B2, “Hepatitis B antiviral agents” (Enanta Pharmaceuticals, Inc., priority 2019, dated 2022)
